Assay results from ChEMBL document CHEMBL2073982, “Bumetanide is not transported by the Ntcp or by the oatp: evidence for a third organic anion transporter in rat liver cells” (Biochim Biophys Acta, 1996).

Biological target: T1, Solute carrier organic anion transporter family member 1A1 (Rattus norvegicus, UniProt P46720)
T1 sequence (P46720 whole entry): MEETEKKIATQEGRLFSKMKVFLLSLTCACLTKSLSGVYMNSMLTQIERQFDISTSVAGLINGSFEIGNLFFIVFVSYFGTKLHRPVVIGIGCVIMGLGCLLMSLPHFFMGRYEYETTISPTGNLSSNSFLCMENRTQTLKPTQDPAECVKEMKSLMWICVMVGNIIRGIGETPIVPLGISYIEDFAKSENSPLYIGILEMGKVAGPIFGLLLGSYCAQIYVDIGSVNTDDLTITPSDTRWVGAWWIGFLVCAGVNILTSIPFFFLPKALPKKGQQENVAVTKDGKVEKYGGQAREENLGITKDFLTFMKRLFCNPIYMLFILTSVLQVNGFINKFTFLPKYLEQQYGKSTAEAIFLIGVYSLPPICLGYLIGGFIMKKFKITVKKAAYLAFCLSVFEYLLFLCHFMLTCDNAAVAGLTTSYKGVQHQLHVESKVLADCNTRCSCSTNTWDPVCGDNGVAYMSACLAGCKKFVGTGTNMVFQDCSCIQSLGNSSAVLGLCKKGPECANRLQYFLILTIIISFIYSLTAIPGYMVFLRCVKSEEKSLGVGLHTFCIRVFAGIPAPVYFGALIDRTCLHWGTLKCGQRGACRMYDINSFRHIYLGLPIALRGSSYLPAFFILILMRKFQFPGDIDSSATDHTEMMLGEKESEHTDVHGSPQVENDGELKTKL
Assay: TP_TRANSPORTER: uptake in Xenopus laevis oocytes
Format: functional, cell-based
Conditions: oocyte

Activity: is not a substrate [-]
SMILES: CCCCNc1cc(C(=O)O)cc(S(N)(=O)=O)c1Oc1ccccc1 [BUMETANIDE]
